One assay deals with T1, glycine receptors (Rattus norvegicus, UniProt P07727).
T1 construct: expressed in transfected cells; host or cells: Xenopus laevis oocytes; cDNA from Dr. D. Weiss
T1 sequence (P07727 29-457): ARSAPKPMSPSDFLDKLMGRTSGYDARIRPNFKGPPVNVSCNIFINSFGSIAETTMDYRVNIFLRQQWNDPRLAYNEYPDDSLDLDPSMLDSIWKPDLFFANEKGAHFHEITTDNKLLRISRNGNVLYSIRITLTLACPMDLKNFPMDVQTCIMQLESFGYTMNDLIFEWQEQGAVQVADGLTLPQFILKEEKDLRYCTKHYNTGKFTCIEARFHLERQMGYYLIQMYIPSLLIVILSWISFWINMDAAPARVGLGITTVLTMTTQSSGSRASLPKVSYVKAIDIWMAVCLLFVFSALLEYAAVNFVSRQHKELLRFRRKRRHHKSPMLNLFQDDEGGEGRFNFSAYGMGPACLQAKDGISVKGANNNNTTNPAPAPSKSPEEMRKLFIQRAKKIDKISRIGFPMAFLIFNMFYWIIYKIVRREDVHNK
Briefly: Glycine receptors in Xenopus oocytes (selectivity). The assay is classed as cell-based. Particulars: 20 μM. The protocol: The numbers of oocytes recorded are in parentheses.
The cDNA was linearized by restriction enzymes (Thermo Fisher Scientific, Lithuania), and the cRNA encoding the receptor subunits was synthesized from the linear template cDNA using the mMESSAGE mMACHINE kit (Invitrogen/Thermo Fisher Scientific, Lithuania). The α1β1δγ nAChR subunits were injected at a 1:1:1:1 ratio while α4 […] nAChR subunits were injected at a 1:1 ratio. The cDNAs encoding GABA and glycine subunits were provided by Dr. D. Weiss (University of Texas Health Science Center at San Antonio). The cDNAs encoding nAChR subunits were provided by Drs. R. Papke (University of Florida) and S. Heinemann (Salk Institute). The cDNA encoding the purinergic receptor was provided by Dr. R. Hume (University of Michigan).
Responses in the presence of EU1180-438 were expressed as a percent of control calculated as the average of the responses before and after EU1180-438 exposure. […]
Defolliculated Xenopus laevis oocytes (stage V-VI) were obtained from Ecocyte BioScience (Austin, Texas), or prepared from commercially available Xenopus ovaries (Xenopus 1, Dexter, MI) as previously described (Hansen, et al., Mol. Pharmacol., 2013). […] Recording electrodes were filled with 0.3-3.0 M KCl, and current responses were recorded at a holding potential of −40 mV.

For assay [1], the target named is T2, human GluN1/GluN3A receptors (Homo sapiens, UniProt Q8TCU5).
T2 construct: Human GluN3A (NP_597702.2) and rat GluN3B (NP_579842.2) were synthesized and subcloned into SP6 plasmids; expressed in transfected cells; host or cells: Xenopus laevis oocytes, cRNA injection
Briefly: Two-electrode voltage-clamp recordings of GluN1/GluN3A receptors in the presence of CGP-78608 (Xenopus oocytes). The assay is classed as cell-based. From the text: (§1) cDNA encoding human wild-type (WT) GluN1-1a (GenBank accession numbers NP_015566, hereafter GluN1) and rat GluN1-1a (NP_058706.1) were synthesized and subcloned into pGEMHE plasmid; some experiments used the rat splice variant GluN1-4a (NP_001257531.1). Human GluN3A (NP_597702.2) and rat GluN3B (NP_579842.2) were synthesized and subcloned into SP6 plasmids. For most experiments, human GluN1 was co-expressed with human GluN3A, except for mutagenesis experiments where rat GluN1 was co-expressed with human GluN3A. Rat GluN1-4a was always expressed with rat GluN3B.
(§2) Defolliculated Xenopus laevis oocytes (stage V-VI) were obtained from Ecocyte BioScience (Austin, Texas), or prepared from commercially available Xenopus ovaries (Xenopus 1, Dexter, MI) as previously described (Hansen, et al., Mol. Pharmacol., 2013). A Drummond Nanoject II (Broomall, PA) was used to inject oocytes with cRNAs encoding GluN1 and GluN3 at a 1:3 ratio in RNase-free water. The cRNA was diluted as needed to give responses with amplitudes ranging between 200-2000 nA (0.2-10 ng total cRNA). Following cRNA injection, the oocytes were stored at 15-19° C. in Barth's solution that contained (in mM) 88 NaCl, 2.4 NaHCO3, 1 KCl, 0.33 Ca(NO3)2, 0.41 CaCl2), 0.82 MgSO4, and 5 Tris-HCl (pH 7.4 with NaOH), supplemented with 1 μg/ml streptomycin (Invitrogen, Carlsbad, CA) and 100 μg/ml gentamicin (Fisher Scientific, Pittsburgh, PA). Recordings were performed 2-5 days following cRNA microinjection at room temperature (23° C.) using a two-electrode voltage-clamp amplifier (OC725, Warner Instrument, Hamilton, CT). The signal was low-pass filtered at 10-20 Hz (4-pole, −3 dB Bessel) and digitized at the Nyquist rate using PCI-6025E or USB-6212 BNC data acquisition boards (National Instruments, Austin, TX) using EasyOocyte (http://www.easyoocyte.io/). Oocytes were placed in a custom-made chamber and continuously perfused (2.5 ml/min) with oocyte recording solution containing (in mM) 90 NaCl, 1 KCl, 10 HEPES, 0.5-1.0 BaCl2, and 0.01 EDTA (pH 7.4 with NaOH). Solutions were applied by gravity, and solution exchange was controlled through a rotary valve (Hamilton, Reno, NV). Recording electrodes were filled with 0.3-3.0 M KCl, and current responses were recorded at a holding potential of −40 mV.
(§3) Response (%)=(100−minimum)/(1+([concentration]/IC50)^nH)+minimum (2) • where nH is the Hill slope, IC50 is the concentration that produces a half-maximal effect, and minimum is the degree of residual inhibition at a saturating concentration of the negative allosteric modulator.
Background: Two-electrode voltage clamp holds a large cell at a set potential and records current.

The target in assay [2] is T3, human GluN1/GluN3A receptors (Homo sapiens, UniProt Q05586+Q8TCU5).
T3 construct: Human GluN3A (NP_597702.2) and rat GluN3B (NP_579842.2) were synthesized and subcloned into SP6 plasmids; expressed in transfected cells; host or cells: Xenopus laevis oocytes, cRNA injection
The description is as above. It counts as cell-based. As to conditions: pH 7.4; 0.5 μM CGP-78608; read-out: EC50, (95% CI) GluN1/GluN3A + CGP.
From the text: as §1, §2, §3

Assay [3] deals with native GluN1/GluN3A receptors (Mus musculus, UniProt A2AIR5). Briefly: Whole-cell patch-clamp of glycine-activated responses in hippocampal CA1 pyramidal cells, acute brain slices. As to conditions: 30 μM; 1 μM CGP-78608; 10 mM glycine puffs. The assay is classed as cell-based. A general note: In patch-clamp work, channel activity is measured electrically.
The test system of assay [4] is GluN1/GluN2 NMDA receptors (GluN2A, GluN2B, GluN2C, GluN2D). Description: Recombinant GluN1/GluN2 NMDA receptors in Xenopus oocytes (selectivity). It counts as cell-based, rat.
Assay [5] addresses T4, rat GluN1-4a/GluN3B receptors (Rattus norvegicus, UniProt Q8VHN2).
T4 construct: Human GluN3A (NP_597702.2) and rat GluN3B (NP_579842.2) were synthesized and subcloned into SP6 plasmids; expressed in transfected cells; host or cells: Xenopus laevis oocytes, cRNA injection
Briefly: Two-electrode voltage-clamp recordings of GluN1-4a/GluN3B receptors in the presence of CGP-78608 (Xenopus oocytes). The assay is classed as cell-based.
From the text: as §1, §2, §3
(§4) Selected compounds were also screened in the same assay as EU1180-438 to determine their effect on GluN3B.

Assay [6] deals with T5, rat GluN1-4a/GluN3B receptors (Rattus norvegicus, UniProt P35439+Q8VHN2).
T5 construct: Human GluN3A (NP_597702.2) and rat GluN3B (NP_579842.2) were synthesized and subcloned into SP6 plasmids; expressed in transfected cells; host or cells: Xenopus laevis oocytes, cRNA injection
The assay is described as above. The assay is classed as cell-based. Particulars: pH 7.4; 0.5 μM CGP-78608; read-out: EC50, (95% CI) GluN1/GluN3B + CGP.
From the text: as §1, §2, §3, §4

Where [7] appears, read: 500 nM CGP-78608 plus 100 μM glycine.
Setting [8] is: fitted maximum at saturating test compound, pH 7.4, 0.5 μM CGP-78608.

The source of these data is patent publication US20230339854A1, “Negative Allosteric Modulation of GluN3-Containing N-Methyl-D-Aspartate Receptors” (Emory University, priority 2020, published 2023).

SMILES strings stand for the structures. Entries after “also recorded” stand apart in the source; their conditions may differ.

T4 sequence (Q8VHN2 25-1002, other chains not shown): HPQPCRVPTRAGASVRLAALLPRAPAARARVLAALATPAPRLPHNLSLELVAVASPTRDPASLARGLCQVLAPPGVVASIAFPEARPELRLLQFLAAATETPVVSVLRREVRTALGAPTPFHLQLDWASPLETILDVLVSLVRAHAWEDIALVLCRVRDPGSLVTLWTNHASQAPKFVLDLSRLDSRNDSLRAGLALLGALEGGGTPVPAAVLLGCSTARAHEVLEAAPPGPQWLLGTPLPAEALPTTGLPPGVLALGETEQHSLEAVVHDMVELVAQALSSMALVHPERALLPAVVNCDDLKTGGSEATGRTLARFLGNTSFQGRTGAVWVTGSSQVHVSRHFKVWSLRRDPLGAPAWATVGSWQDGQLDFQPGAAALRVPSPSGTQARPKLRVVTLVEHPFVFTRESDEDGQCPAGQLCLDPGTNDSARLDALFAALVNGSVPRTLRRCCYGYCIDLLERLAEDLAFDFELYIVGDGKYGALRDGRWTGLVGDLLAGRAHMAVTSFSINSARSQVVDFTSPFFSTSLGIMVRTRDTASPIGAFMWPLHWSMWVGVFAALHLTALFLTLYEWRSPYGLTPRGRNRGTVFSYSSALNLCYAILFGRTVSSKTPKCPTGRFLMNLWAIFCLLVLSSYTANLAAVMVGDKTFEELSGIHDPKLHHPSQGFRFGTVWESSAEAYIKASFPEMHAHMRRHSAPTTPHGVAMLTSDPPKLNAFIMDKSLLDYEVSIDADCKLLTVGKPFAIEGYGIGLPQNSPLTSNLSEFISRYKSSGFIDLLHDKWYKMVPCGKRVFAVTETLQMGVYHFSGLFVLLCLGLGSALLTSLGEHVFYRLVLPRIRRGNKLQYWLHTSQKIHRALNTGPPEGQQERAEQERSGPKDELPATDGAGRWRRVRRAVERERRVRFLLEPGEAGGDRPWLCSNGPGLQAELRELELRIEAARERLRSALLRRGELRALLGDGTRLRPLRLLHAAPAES
T2 sequence (Q8TCU5 24-1115, other chains not shown): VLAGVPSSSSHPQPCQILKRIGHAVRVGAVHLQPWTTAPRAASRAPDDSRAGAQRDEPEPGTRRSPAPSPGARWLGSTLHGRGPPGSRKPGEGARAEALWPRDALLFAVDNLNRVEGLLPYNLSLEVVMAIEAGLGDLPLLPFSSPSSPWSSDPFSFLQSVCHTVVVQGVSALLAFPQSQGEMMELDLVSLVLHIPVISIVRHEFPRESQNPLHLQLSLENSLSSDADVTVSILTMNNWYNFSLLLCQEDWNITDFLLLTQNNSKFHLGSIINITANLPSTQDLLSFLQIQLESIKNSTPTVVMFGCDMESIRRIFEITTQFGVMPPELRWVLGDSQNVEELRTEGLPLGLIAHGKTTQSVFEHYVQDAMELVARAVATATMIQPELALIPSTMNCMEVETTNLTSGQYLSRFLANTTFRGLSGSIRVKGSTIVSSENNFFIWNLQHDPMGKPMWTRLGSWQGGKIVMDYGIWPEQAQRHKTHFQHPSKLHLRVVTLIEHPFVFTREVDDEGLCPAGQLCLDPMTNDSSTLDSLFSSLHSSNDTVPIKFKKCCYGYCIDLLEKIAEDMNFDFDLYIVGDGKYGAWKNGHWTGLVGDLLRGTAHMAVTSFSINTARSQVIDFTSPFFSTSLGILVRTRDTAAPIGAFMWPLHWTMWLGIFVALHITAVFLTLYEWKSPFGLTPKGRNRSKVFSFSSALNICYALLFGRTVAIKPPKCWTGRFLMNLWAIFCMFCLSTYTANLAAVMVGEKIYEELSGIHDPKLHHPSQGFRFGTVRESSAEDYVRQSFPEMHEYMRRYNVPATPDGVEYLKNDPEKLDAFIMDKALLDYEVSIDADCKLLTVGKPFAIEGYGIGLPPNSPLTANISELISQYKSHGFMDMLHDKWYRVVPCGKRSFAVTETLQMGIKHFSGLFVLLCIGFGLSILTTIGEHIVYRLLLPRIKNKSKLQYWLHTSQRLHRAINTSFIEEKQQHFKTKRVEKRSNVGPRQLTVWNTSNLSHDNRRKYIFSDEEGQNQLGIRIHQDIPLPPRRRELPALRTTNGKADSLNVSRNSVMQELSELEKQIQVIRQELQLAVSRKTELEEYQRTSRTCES
Chain of native GluN1/GluN3A receptors (A2AIR5 27-1135, other chains not shown): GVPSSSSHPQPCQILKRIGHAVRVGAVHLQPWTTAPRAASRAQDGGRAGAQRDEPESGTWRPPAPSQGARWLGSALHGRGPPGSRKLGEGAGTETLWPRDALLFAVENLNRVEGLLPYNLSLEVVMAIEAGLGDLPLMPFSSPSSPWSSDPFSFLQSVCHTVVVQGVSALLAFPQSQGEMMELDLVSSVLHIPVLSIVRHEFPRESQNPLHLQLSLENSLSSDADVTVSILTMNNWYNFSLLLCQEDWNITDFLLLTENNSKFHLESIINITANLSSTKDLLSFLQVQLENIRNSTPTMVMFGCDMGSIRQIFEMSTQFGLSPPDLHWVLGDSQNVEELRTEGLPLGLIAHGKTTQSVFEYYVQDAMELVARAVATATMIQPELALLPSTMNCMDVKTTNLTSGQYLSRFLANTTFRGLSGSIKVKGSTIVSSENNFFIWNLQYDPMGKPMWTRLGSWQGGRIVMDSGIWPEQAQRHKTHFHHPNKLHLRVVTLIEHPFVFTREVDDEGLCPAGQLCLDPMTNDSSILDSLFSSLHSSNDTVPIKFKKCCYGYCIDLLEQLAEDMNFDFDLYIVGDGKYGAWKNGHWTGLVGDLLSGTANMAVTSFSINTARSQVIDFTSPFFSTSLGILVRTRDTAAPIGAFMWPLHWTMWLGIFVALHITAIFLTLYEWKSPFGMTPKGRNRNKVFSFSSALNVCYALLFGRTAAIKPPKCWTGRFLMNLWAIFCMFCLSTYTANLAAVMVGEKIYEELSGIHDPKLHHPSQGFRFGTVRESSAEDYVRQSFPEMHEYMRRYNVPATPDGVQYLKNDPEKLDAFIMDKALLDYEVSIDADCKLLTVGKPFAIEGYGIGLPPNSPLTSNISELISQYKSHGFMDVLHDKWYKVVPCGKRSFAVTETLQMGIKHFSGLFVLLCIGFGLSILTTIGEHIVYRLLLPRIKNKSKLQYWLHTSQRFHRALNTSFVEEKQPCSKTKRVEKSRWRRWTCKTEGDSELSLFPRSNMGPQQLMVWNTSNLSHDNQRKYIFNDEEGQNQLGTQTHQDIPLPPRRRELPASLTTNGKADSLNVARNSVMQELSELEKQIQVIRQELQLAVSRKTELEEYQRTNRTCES
T5 sequence (Q8VHN2 25-1002, other chains not shown): as the sequence (Q8VHN2 25-1002, other chains not shown) above
T3 sequence (Q8TCU5 24-1115, other chains not shown): as the sequence (Q8TCU5 24-1115, other chains not shown) above

Regarding `COc1ccc(OCC(c2ccc(OC)cc2)N2Cc3ccccc3C2=O)cc1` (racemic) [EU1180-438, 2-(2-(4-methoxyphenoxy)-1-(4-methoxyphenyl)ethyl)isoindolin-1-one], the “activity at glycine receptors” value on glycine receptors was “virtually no activity”. For the same molecule, the maximal inhibition in assay [1] (500 nM CGP-78608) was 85%; in assay [5] (500 nM CGP-78608) it was 93%. Moreover, the Slope in assay [1] (setting [7]) and in assay [5] (setting [7]) was 1.5 throughout. Further, the minimum stood at 15% in assay [1] (setting [7]) and 7% in assay [5] (setting [7]). The “% Inhibition GluN1/GluN3A + CGP” value in assay [1] (setting [8]) is reported as 85%, (n = 9). Further, the values for the EC50 in assay [2] and in assay [6] were 1800 nM and 2200 nM, respectively. In addition, in assay [3], the “effect on glycine-activated responses from native GluN1/GluN3A receptors” value is reported as “strong inhibition; also recorded: inhibited significantly”. In addition, in assay [4], the “activity toward recombinant GluN1/GluN2 NMDA receptors (GluN2A-D)” value is given as “no detectable activity”. The “activity at GluN1/GluN2 NMDA receptors” value in assay [4] (20 μM, rat GluN1-1a/GluN2A-D) was “virtually no activity”. Also, the “% Inhibition GluN1/GluN3B + CGP” value in assay [5] (setting [8]) is reported as 93%, (n = 8).
